Reference: paper PMC9181589, “Antamanide Analogs as Potential Inhibitors of Tyrosinase” (International Journal of Molecular Sciences, 2022)
Entries after “also recorded” stand apart in the source; their conditions may differ.

Legend:
mushroom tyrosinase = assay: Tyrosinase inhibition, UV-Vis spectroscopic method (L-Tyr oxidation by tyrosinase/O2); type: biochemical
Text: The capability of peptides to inhibit the activity of tyrosinase has been evaluated by a UV-Vis spectroscopic method monitoring the changes in the UV-Vis spectrum of its natural substrate, L-Tyr. […] The addition of enzyme firstly hydroxylated the L-Tyr residue to dihydroxyphenylalanine (DOPA) and successively oxidized DOPA to dopaquinone, which is then converted to dopachrome (Scheme 2). Both DOPA and dopaquinone appearance can be detected by the change in the UV-Vis spectrum. The hydroxylation of L-Tyr to DOPA is characterized by an increase in the intensity of the band at 275 nm and the appearance of an additional band at about 304 nm, while the oxidation to dopaquinone is made detectable by the appearance of a band at 470–490 nm. […] This phase is related to the monophenolase activity of the enzyme and essentially is due to the low amount of the oxy form of the tyrosinase enzyme in the commercially available preparation. Although other various factors may play an important role, including substrate and enzyme concentration, enzyme source, pH of the medium, and presence of hydrogen donors such as DOPA or other catechols, also the presence of transition metal ions can influence the presence and the length of this lag-phase.
Millimolar peptide stock solutions were prepared in DMSO and then diluted to μM concentration by buffer in UV cells. […] The capability of peptides to inhibit the tyrosinase activity was evaluated at two different peptide concentrations, 2 and 0.2 µM.
The capability of cyclic peptides to inhibit the oxidation of Tyr by the tyrosinase/O2 oxidizing system was monitored by means of a UV-Vis spectroscopy method, carried out in a Shimadzu UV-Visible UV-2501 spectral spectrophotometer using Helma (Mülheim, Germany) duple chambers UV-cell (2 × 4.375 mm). Briefly, 880 µL of a Tyr solution (2 mM) and 900 µL of a mushroom tyrosinase solution (2000 U/mL, Sigma-Aldrich), both dissolved in 50 mM phosphate buffer (pH 6.8), were separately introduced in the duple UV-cell chambers. A total of 20 µL of an appropriate DMSO stock solution of inhibitors (1.8, 0.18, or 0.018 mM) were added to the chamber containing the Tyr solution. The tyrosinase activity in absence of inhibitors was detected by adding 20 µL of DMSO. A background UV-Vis spectrum was acquired in the 250–800 nm wavelength range with a 2.0 nm slit and fast speed before starting the reaction. Thereafter, the solutions were mixed, and UV-Vis spectra were acquired at different time points after mixing. Three replicates were performed for each experiment. Data processing was performed with UV Probe (Shimazdu, Kyoto, Japan) and OriginPro 2019 (v. 9.60) software (OriginLab Corporation, Northampton, MA, USA).
Purchased mushroom tyrosinase was used without further purification. […] The concentration of the two solution was determined spectrophotometrically (εTyr at 274.6 nm = 1.420; εtyrosinase at 280 nm = 1.426).
Tyrosinase-dependent diphenol and o-quinone formation was assessed as the appearance of a characteristic absorption band at about 304 and 477 nm, respectively. The inhibition activity was determined according to the following equation [33, 34]:% inhibition = 1 − [(D − C)/(B − A)] ∗ 100 where C and D are the absorbance values at either 304 or 477 nm in presence of inhibitor before mixing and upon reaching the maximum absorbance, respectively, while A and B are the corresponding values in absence of inhibitor.

B16F10 metastatic cells = conditions: after 24 h of treatment; cited from earlier work
Text: In the past years, we evaluated the chemical and biological activities of the cyclic decapeptide antamanide, firstly isolated from the lipophilic fraction of an extract of Amanite phalloides by the T. Wieland’s group in 1962 [3]. A characteristic of this peptide is its ability to form complexes of high stability with metal ions, including Na^+, K^+, Ca^2+, Tl^3+, and others. A close correlation has been found between the ion binding properties and the selectivity for Na^+ over K^+ with its antitoxic activity against phallotoxins and the prevention of their accumulation ... || Antamanide is a cyclic decapeptide isolated from the lipophilic fraction of an extract of the green toadstool Amanite phalloides, able to form complexes of high stability with different metal ions. In order to improve the hydrophilicity of this peptide, the Phe residue at either the six or nine positions was replaced with a Gly residue.

[1] = cited from earlier work
Text: Antamanide is a cyclic decapeptide isolated from the lipophilic fraction of an extract of the green toadstool Amanite phalloides, able to form complexes of high stability with different metal ions. In order to improve the hydrophilicity of this peptide, the Phe residue at either the six or nine positions was replaced with a Gly residue.

Substance	effects on tyrosinase activity (mushroom tyrosinase; antamanide concentration 20 µM, data not shown)	tyrosinase inhibitory activity (mushroom tyrosinase; peptide 2 and 0.2 µM from DMSO stock, L-Tyr substrate, 50 mM phosphate buffer pH 6.8, UV-Vis at 304 and 477 nm, three replicates)	cell proliferation of metastatic melanoma cell line (B16F10 metastatic cells)	ions selectivity [1]	dependence of tyrosinase inhibitory activity on peptide concentration (mushroom tyrosinase; 2 versus 0.2 µM (Figure 4))	inhibitory activity towards the hydroxylation of tyrosine (mushroom tyrosinase; calculated at 303 nm, peptide 2 and 0.2 µM, 50 mM phosphate buffer pH 6.8)	inhibition of the oxidation of DOPA to dopaquinone (mushroom tyrosinase; calculated at 477 nm, peptide 2 and 0.2 µM, 50 mM phosphate buffer pH 6.8, three replicates)
antamanide	absence of effects	did not inhibit; also recorded: No inhibitory activity; also recorded: not able to inhibit	significant reduction of cell proliferation	Ca > Na >> K			
pseudostellarin A [PS-A]					lower when the concentration was higher	low activity	about 30%
